In ChEMBL document CHEMBL1141828, “Artoindonesianins A and B, two new prenylated flavones from the root of Artocarpus champeden” (J Nat Prod, 1999):
In brackets after ≈: the same amount, converted by molar mass.

Tested on: P388
Test: Cytotoxicity against mouse P388 cells by microculture tetrazolium assay
Type: functional, cell-based

SMILES	IC50 [µg/mL]
CC(C)=CCC/C(C)=C/Cc1c2c(c(O)c3c(=O)c4c(oc13)-c1c(O)cc(O)c3c1C(C4)C(C)(C)O3)C=CC(C)(C)O2 (configuration not stated) [ARTOINDONESIANIN A]	21 (≈ 36.8 µM)
COc1cc2oc3c(c(=O)c2c(O)c1/C=C/C(C)C)CC(C(C)(C)OO)Oc1cc(O)ccc1-3 (configuration not stated) [ARTOINDONESIANIN B]	3.9 (≈ 8.32 µM)
